± gives the standard deviation of the averaged measurements.
Tests used:
[1] = test system: HSC1 (primary human Schwann cells); assay: drug sensitivity score (DSS, CellTiter-Glo viability, 72 h) (DSS (dimensionless)); higher = more sensitive; extreme values may be limits of the assay
Summary of the method: (§1)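 Viability of MPNST cell lines and primary human Schwann cells was read as CellTiter-Glo ATP luminescence after 72 h at 37 °C, 5% CO2, in 384-well plates seeded with 750–1000 cells per well. Each compound had been preprinted at five concentrations in 10-fold steps. Signals were scaled between vehicle and positive-control wells, duplicates averaged where present, and fitted with four-parameter logistic curves. Drug sensitivity score and relative IC50 (censored at the top concentration) come from those fits, and percent inhibition is taken at the top concentration.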

STS26T [2] = assay: as above
Summary of the method: as §1

S462 [3] = assay: as above
Summary of the method: as §1

[4] = test system: HSC2 (primary human Schwann cells); assay: as above
Summary of the method: as §1

S1507-2 [5] = assay: as above
Summary of the method: as §1

ST8814 [6] = assay: as above
Summary of the method: as §1

[7] = test system: HSC1 (primary human Schwann cells); assay: % inhibition of CellTiter-Glo viability at highest tested concentration (72 h), relative to DMSO and benzethonium chloride controls; higher = more inhibition
Summary of the method: as §1

STS26T [8] = assay: as above
Summary of the method: as §1

S462 [9] = assay: as above
Summary of the method: as §1

[10] = test system: HSC2 (primary human Schwann cells); assay: as above
Summary of the method: as §1

S1507-2 [11] = assay: as above
Summary of the method: as §1

ST8814 [12] = assay: as above
Summary of the method: as §1

[13] = test system: HSC1 (primary human Schwann cells); assay: drug sensitivity score (DSS, CellTox-Green cytotoxicity, 72 h) (DSS (dimensionless)); higher = more cytotoxic; extreme values may be limits of the assay
Summary of the method: (§2)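 MPNST cell lines and primary human Schwann cells were grown for 72 h at 37 °C in 384-well plates containing five 10-fold compound dilutions. CellTox-Green, added before seeding at a final 1:1000 dilution, gave fluorescence from DNA released by disrupted cells, and signals were scaled to vehicle and positive-control wells. Curves were fitted with a four-parameter logistic model. Drug sensitivity score and relative IC50 come from these fits, with IC50 censored at the top concentration.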

STS26T [14] = assay: as above
Summary of the method: as §2

[15] = test system: HSC2 (primary human Schwann cells); assay: as above
Summary of the method: as §2

S1507-2 [16] = assay: as above
Summary of the method: as §2

ST8814 [17] = assay: as above
Summary of the method: as §2

Structure (SMILES)	drug sensitivity score [1]	drug sensitivity score (STS26T [2])	drug sensitivity score (S462 [3])	drug sensitivity score [4]	drug sensitivity score (S1507-2 [5])	drug sensitivity score (ST8814 [6])	% inhibition [7]	% inhibition (STS26T [8])	% inhibition (S462 [9])	% inhibition [10]	% inhibition (S1507-2 [11])	% inhibition (ST8814 [12])	drug sensitivity score [13]	drug sensitivity score (STS26T [14])	drug sensitivity score [15]	drug sensitivity score (S1507-2 [16])	drug sensitivity score (ST8814 [17])
Cc1c(C(=O)Nc2ccc(N3C[C@@H](C)O[C@@H](C)C3)nc2)cccc1-c1ccc(OC(F)(F)F)cc1 [Erismodegib] (max concentration tested 10000 nM)	0	0.451	0	0	0.871 ± 1.2	0	9.09%	16.9%	13.2 ± 2.2%	8.65%	9.49 ± 1.4%	1.35%	1.48	0	4.95	14.8 ± 20	0
c1cc(CN2CCCNCCNCCCNCC2)ccc1CN1CCCNCCNCCCNCC1 [Plerixafor aq] (max concentration tested 10000 nM)	0	0	0	0	0	0	-10.1%	3.99%	-4.54 ± 3.1%	-6.48%	-14.1 ± 20%	4.25%	0	0.908	2.79	5.26 ± 3	0
CCN(CC)CCCC(C)Nc1ccnc2cc(Cl)ccc12 (stereo unspecified) [Chloroquine aq] (max concentration tested 100000 nM)	9.99	14.5	13 ± 1.7	9.45	20.19 ± 0.053	17.4	94.7%	96.2%	95.68 ± 0.34%	94.5%	95.13 ± 0.85%	96.1%	9.24	15.1	8.02	18.3 ± 0.29	18.6
CC[C@@]1(O)C(=O)OCc2c1cc1n(c2=O)Cc2cc3ccccc3nc2-1 [Camptotechin] (max concentration tested 5000 nM)	22.7	22	26.995 ± 0.022	23.8	19.2 ± 0.92	26.9	101%	102%	103.58 ± 0.083%	102%	100 ± 0.18%	100%	20.8	13.2	17.7	10.95 ± 0.027	30.9
CN(C)C(=N)NC(=N)N [Metformin aq] (max concentration tested 100000 nM)	0	0	0	0	0	0	-13.1%	5.16%	1.42 ± 6.1%	-15.5%	6.36 ± 5.3%	7.41%	0	0	0	0.0766 ± 0.11	0
Cc1sc2c(c1C)C(c1ccc(Cl)cc1)=N[C@H](CC(=O)OC(C)(C)C)c1nnc(C)n1-2 [(-)JQ1] (max concentration tested 10000 nM)	0.0114	0.598	0.987 ± 0.67	0.217	0.382 ± 0.54	0.724	11%	15.6%	21.6 ± 8.9%	15.6%	12.5 ± 8.2%	20%	0	0	0	0	0
COC1=C2C[C@@H](C)C[C@H](OC)[C@H](O)[C@@H](C)/C=C(\C)[C@H](OC(N)=O)[C@@H](OC)/C=C\C=C(/C)C(=O)NC(=CC1=O)C2=O [Geldanamycin] (max concentration tested 10000 nM)	16.7	12.3	15.8 ± 0.19	16.7	8.65 ± 0.52	12	96.7%	94.2%	98.4 ± 1.8%	94.7%	97.21 ± 0.53%	90.6%	20.4	8.09	20.2	5.24 ± 1.8	2.65
CC(=O)N(O)CCCCCNC(=O)CCC(=O)N(O)CCCCCNC(=O)CCC(=O)N(O)CCCCCN [Deferoxamine aq] (max concentration tested 10000 nM)	5.55	5.09	6.82 ± 1.4	7.69	6.96 ± 1	9.08	60.6%	52.3%	74.6 ± 9.3%	64.9%	61 ± 2.2%	88.2%	0	0	0	0.026 ± 0.037	3.55
O=C(O)C1(C(=O)O)CCC1.[NH2-].[NH2-].[Pt+2] [Carboplatin aq] (max concentration tested 100000 nM)	8.01	6.61	8.728 ± 0.04	8.82	5.78 ± 1.4	6.09	85.9%	81.2%	98.3 ± 1%	93.2%	73.8 ± 1.3%	87.5%	6.3	4.47	7.86	2.71 ± 1.2	6.79
Cc1ccc([N+](=O)[O-])cc1S(=O)(=O)N(C)/N=C/c1cnc2ccc(Br)cn12 [PIK-75] (max concentration tested 10000 nM)	19.7	22.3	21.2 ± 0.91	21.1	17.9 ± 1.9	17.7	91.1%	102%	101.9 ± 0.78%	95.4%	97.021 ± 0.018%	89.1%	7.46	14.6	9.74	8.99 ± 6.5	5.5
CCCC(CCC)C(=O)O [Valproic acid aq] (max concentration tested 1000000 nM)	4.34	1.5	2.44 ± 0.31	4.4	1.59 ± 0.097	3.83	68.2%	28.3%	31.3 ± 17%	59%	20.7 ± 3.2%	44.4%	0	0	0	0	0.307
COc1ncc(-c2ccc3nccc(-c4ccnnc4)c3c2)cc1NS(=O)(=O)c1ccc(F)cc1F (max concentration tested 1000 nM)	16.1	16.6	10.1 ± 1.8	15.8	14 ± 0.98	12.8	84.4%	83.4%	75.23 ± 0.42%	84.1%	72.9 ± 5.3%	90%	0	0.0475	0	0.225 ± 0.23	4
CCN(CC)CCCC(C)Nc1c2ccc(Cl)cc2nc2ccc(OC)cc12 (stereo unspecified) [Mepacrine aq] (max concentration tested 50000 nM)	18.6	18.9	20.5 ± 1.6	18	19.92 ± 0.17	20.5	95.9%	96.5%	95.06 ± 0.61%	95%	98.51 ± 0.17%	96.3%	20.7	15.8	19.6	23.5 ± 4.6	14.7
COCC1(CO)C(=O)C2CCN1CC2 (stereo unspecified) [Prima-1 Met] (max concentration tested 10000 nM)	1.87	0.507	1.58 ± 1.1	2.14	2.75 ± 3.9	0	26.3%	14.6%	19.1 ± 8.4%	32.4%	6.31 ± 9.8%	8.31%	0	0	0	7.59 ± 11	0
CCNC(=O)c1noc(-c2cc(C(C)C)c(O)cc2O)c1-c1ccc(CN2CCOCC2)cc1 [NVP-AUY922] (max concentration tested 1000 nM)	21.6	18.3	19.7 ± 3.3	22.6	20.5 ± 1.9	19.4	98.2%	92.2%	98 ± 1.7%	97.1%	97.933 ± 0.086%	98.2%	19.6	11.4	20.4	20.6 ± 3.5	8.57
Cn1cnc2c(F)c(Nc3ccc(Br)cc3F)c(C(=O)NOCCO)cc21 [MEK-162] (max concentration tested 1000 nM)	0.0621	2.04	2.73 ± 0.038	0	1.31 ± 1.3	1.66	15.1%	24.5%	29.8 ± 0.71%	-2.17%	19.9 ± 8.2%	23.8%	0	0	0	0	0
Cc1c(CN2CCN(C(=O)[C@H](C)O)CC2)sc2c(N3CCOCC3)nc(-c3cnc(N)nc3)nc12 [GDC-0980] (max concentration tested 10000 nM)	11.8	12.5	10.5 ± 0.55	12.5	12.2 ± 0.97	9.92	82.8%	83.4%	76.6 ± 3.3%	80.9%	79.39 ± 0.55%	90%	0	0	0	0.544 ± 0.76	1.59
Oc1ncc(N(CCCl)CCCl)c(O)n1 [Uracil mustard] (max concentration tested 10000 nM)	0	0	0	0	0	0	5.98%	1.52%	-1.32 ± 0.75%	5.29%	-1.65 ± 8.9%	10.8%	0	0	0	0	0

Reference: the supplement of paper PMC5579334
